In ChEMBL document CHEMBL1201862, “PubChem BioAssay data set” (2004):
The source made the active and inactive calls.

What was measured:
[1] = blockers of bursicon-stimulated LGR2 cAMP reporter – cell-based, HEK293, CRE-luciferase reporter, cherry pick, set 2, dose response (AID 743343); type: functional;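 further: transfected cells were stimulated with diluted bursicon conditioned medium after compound addition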
[2] = molecular target: Glucose-6-phosphate 1-dehydrogenase (Homo sapiens, UniProt P11413); test: inhibition of Homo sapiens G6PD, dose series – biochemical, fluorescence, selectivity assay for P. falciparum G6PD inhibitor project, dose response (AID 504792); type: functional
Glucose-6-phosphate 1-dehydrogenase, sequence (P11413 whole entry): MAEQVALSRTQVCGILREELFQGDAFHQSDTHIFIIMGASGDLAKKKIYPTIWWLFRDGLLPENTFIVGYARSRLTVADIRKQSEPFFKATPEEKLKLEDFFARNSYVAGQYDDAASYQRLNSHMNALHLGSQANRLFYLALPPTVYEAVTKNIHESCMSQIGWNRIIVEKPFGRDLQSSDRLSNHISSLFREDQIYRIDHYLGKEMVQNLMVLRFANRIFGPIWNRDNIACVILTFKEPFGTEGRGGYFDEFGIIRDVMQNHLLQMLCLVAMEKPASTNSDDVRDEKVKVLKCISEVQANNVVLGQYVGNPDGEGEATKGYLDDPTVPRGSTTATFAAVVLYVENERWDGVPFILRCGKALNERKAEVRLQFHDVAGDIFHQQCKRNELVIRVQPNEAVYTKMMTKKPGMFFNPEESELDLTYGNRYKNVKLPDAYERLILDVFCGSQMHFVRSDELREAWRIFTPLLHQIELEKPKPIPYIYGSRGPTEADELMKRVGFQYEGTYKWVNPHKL

[3] = blockade of melanocortin 4 receptor signaling – cell-based, plate reader, cherry pick, counter-screen for LGR2 antagonist project, dose response (AID 743444); type: functional;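 further: transfected HEK 293 cells stimulated with alpha-MSH peptide; potency of inhibitors of the alpha-MSH evoked signal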
[4] = A549 cell cytotoxicity, dose response, cytotoxicity control, plate reader, cherry-pick, antagonist series (AID 743412); type: functional, cell-based
[5] = molecular target: Heat shock protein HSP 90-alpha (Homo sapiens, UniProt P07900); type: functional, organism-based
[6] = NIH-3T3 fibroblast cytotoxicity, dose response, cytotoxicity control, cell-based, fluorescence, Alamar Blue, secondary assay (AID 2327); type: functional;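 further: NIH-3T3 mouse fibroblasts cultured with fluconazole at 8 µg/mL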
[7] = fluconazole-exposed Candida albicans growth modulators – fluorescence, retest, confirmation (AID 2467); type: functional, cell-based
[8] = molecular target: T1, Microphthalmia-associated transcription factor (Homo sapiens, UniProt O75030); test: reducers of TRPM1 reporter luminescence, concentration series – cell-based, SK-MEL-5, cherry-picked, set 3, MITF inhibitor project, dose response (AID 493073); type: functional;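 further: SK-MEL-5 melanoma cells with luciferase driven by the MITF target TRPM1 promoter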
T1 sequence (O75030 whole entry): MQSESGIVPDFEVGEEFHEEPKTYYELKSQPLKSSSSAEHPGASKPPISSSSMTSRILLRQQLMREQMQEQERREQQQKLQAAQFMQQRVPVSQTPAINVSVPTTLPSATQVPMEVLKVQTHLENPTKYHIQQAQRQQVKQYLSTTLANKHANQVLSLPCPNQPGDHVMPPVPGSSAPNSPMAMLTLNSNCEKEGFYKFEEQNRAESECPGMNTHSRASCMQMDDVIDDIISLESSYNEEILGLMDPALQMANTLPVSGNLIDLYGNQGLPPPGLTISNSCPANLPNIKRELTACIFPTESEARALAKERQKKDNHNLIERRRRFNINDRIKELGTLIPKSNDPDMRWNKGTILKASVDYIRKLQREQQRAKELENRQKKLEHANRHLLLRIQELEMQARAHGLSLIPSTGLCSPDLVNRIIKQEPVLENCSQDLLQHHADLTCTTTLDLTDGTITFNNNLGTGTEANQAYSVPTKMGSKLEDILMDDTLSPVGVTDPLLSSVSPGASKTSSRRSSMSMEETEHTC

[9] = molecular target: T2, Apoptotic protease-activating factor 1 (Homo sapiens, UniProt O14727); type: functional
T2 sequence (O14727 whole entry): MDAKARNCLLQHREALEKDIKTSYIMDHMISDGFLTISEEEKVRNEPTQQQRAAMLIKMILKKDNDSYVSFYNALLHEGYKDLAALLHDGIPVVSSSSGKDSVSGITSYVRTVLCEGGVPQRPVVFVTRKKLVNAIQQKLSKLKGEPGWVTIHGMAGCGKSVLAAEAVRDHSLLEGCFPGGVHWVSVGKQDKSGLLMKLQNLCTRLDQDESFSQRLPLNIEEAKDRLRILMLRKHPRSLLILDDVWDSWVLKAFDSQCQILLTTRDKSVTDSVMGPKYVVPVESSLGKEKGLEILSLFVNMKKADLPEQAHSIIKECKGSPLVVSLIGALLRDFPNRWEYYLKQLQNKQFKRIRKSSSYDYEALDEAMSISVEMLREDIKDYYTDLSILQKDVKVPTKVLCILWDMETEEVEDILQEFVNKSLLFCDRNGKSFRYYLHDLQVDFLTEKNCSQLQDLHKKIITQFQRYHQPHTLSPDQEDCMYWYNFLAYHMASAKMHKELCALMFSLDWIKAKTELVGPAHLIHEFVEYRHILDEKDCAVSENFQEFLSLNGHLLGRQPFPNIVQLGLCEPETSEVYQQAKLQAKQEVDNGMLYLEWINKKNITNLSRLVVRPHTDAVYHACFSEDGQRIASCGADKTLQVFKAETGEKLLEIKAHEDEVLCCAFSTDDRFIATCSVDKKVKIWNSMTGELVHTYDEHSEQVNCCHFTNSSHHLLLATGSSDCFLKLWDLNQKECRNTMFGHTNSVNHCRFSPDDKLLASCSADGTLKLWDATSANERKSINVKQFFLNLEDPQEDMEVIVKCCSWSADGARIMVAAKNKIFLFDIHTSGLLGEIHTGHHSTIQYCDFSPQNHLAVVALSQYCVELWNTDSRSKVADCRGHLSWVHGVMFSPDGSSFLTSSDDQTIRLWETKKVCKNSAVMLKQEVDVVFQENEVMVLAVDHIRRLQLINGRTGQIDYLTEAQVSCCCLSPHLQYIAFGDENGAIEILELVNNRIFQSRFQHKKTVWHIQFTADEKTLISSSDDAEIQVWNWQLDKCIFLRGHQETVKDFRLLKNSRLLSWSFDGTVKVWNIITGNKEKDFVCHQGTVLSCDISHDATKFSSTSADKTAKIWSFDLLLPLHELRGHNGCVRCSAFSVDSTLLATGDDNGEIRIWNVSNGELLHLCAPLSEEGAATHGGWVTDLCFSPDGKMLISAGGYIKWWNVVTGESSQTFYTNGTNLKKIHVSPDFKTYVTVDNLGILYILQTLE

[10] = Luminescence Cell-Based Dose Response HTS to Identify Inhibitors of 5'UTR Stem-Loop Driven Prion Protein mRNA Translation in H4 Neuroglioblastoma Cells. [Related pubchem assays: 1827 (Project Summary), 1813 (Primary HTS)]; type: functional
[11] = alpha-synuclein stem-loop luciferase translation blockers – H4 neuroglioma cells, luminescence, confirmation (AID 1988); type: functional, cell-based
HEK293 = test: EBV LMP1 TES2 canonical NF-kB signalling blockers – cell-based, HEK293, luciferase, cherry-pick, dose response (AID 588343); type: functional; conditions: Homo sapiens
[12] = Luminescence Cell-Based Dose Retest to Confirm Inhibitors of Cancer Stem Cells. [Related pubchem assays (depositor defined):AID2717, AID2721]; type: functional; conditions: Homo sapiens
[13] = reduction of Shn3 3'UTR-driven luciferase in osteoblasts – cell-based, Clone20 osteoblasts, firefly luciferase, cherry-picked, dose response (AID 624132); type: functional;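 further: firefly luciferase luminescence from reporter carrying the Shn3 3'UTR in osteoblasts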
[14] = loss of viability in HepG2 cells – cell-based, CellTiter-Glo, cherry-picked, cytotoxicity control for Shn3 inhibitor project, dose response (AID 624134); type: functional
[15] = non-specific 3'UTR reporter inhibition in Clone20-Shn3RL – cell-based, Renilla luciferase, cherry-picked, counter-screen for Shn3 inhibitor project, dose response (AID 624133); type: functional
Genome polyprotein = Genome polyprotein (dengue virus type 2, UniProt P29990); test: flavivirus cap methylation enzyme inhibition – biochemical, confirmation dose response, primary screen (AID 588689); type: functional
Genome polyprotein, sequence (P29990 2492-3391 limits assumed): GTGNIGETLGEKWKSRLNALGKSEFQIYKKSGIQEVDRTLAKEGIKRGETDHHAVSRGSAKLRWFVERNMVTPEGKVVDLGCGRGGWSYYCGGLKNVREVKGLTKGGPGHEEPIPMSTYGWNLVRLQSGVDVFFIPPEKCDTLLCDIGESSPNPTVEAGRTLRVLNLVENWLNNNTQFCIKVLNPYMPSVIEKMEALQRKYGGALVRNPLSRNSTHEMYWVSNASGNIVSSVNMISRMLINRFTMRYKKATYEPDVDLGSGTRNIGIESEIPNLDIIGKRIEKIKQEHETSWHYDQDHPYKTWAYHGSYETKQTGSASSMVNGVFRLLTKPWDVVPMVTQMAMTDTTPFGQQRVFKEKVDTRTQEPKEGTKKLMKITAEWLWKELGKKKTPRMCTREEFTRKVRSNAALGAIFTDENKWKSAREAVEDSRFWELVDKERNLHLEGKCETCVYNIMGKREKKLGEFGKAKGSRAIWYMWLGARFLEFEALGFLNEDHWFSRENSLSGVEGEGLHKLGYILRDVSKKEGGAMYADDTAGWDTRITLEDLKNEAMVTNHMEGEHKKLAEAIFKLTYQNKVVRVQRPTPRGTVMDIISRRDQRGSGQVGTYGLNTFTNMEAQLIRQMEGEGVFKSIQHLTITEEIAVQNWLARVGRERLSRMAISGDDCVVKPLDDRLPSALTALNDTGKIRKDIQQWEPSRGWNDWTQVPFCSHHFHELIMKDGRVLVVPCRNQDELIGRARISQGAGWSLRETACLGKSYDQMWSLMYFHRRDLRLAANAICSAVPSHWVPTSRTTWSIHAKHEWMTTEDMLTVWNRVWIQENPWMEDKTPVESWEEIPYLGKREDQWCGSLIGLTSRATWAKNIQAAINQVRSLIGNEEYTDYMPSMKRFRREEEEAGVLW

Caspase-6 = molecular target: T3, Caspase-6 (Homo sapiens, UniProt P55212); test: inhibition of CASP6 peptide cleavage – biochemical, VEID-R110 fluorescence, cherry-pick, dose response (AID 720632)
T3 sequence (P55212 whole entry): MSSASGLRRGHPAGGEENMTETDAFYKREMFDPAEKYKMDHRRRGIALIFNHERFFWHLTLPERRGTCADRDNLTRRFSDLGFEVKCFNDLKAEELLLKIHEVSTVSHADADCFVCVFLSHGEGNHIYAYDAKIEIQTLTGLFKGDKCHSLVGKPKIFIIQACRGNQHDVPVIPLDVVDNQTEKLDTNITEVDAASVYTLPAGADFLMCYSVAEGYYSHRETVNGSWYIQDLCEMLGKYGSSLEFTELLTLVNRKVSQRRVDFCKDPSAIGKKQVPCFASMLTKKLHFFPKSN

[16] = molecular target: T4, High affinity choline transporter 1 (Homo sapiens, UniProt Q9GZV3); test: human choline transporter blockers, potency – cell-based, 5-point CRC, membrane potential dye, dose response (AID 504840); type: functional
T4 sequence (Q9GZV3 whole entry): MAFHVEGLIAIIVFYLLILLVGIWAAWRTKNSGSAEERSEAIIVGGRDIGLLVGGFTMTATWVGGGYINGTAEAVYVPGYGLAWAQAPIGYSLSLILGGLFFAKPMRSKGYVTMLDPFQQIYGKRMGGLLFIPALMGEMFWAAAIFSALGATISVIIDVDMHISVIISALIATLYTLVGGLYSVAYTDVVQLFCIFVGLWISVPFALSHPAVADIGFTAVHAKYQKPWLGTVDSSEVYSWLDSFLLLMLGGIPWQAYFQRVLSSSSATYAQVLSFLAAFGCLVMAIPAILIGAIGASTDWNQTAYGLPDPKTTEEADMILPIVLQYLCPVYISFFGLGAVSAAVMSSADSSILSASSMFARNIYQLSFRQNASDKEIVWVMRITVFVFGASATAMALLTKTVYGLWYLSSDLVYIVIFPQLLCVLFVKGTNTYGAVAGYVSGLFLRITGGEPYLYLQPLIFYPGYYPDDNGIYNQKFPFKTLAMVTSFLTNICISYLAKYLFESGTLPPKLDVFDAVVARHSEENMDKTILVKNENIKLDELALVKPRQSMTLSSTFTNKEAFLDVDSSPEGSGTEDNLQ

[17] = general cell-killing toxicity readout – plate reader, dry powder samples, cytotoxicity control for PAX8 inhibitor project, dose response (AID 743021); type: functional, cell-based
Paired box protein Pax-8 = Paired box protein Pax-8 (Homo sapiens, UniProt Q06710); test: PAX8 transcriptional activity inhibition in RMG-I – RMG-I cells, luciferase, cherry-pick, dose response (AID 687027); type: functional, cell-based;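 further: luciferase reporter driven by Pax8 target thyroperoxidase promoter measured by SteadyGlo luminescence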
Paired box protein Pax-8, sequence (Q06710 whole entry): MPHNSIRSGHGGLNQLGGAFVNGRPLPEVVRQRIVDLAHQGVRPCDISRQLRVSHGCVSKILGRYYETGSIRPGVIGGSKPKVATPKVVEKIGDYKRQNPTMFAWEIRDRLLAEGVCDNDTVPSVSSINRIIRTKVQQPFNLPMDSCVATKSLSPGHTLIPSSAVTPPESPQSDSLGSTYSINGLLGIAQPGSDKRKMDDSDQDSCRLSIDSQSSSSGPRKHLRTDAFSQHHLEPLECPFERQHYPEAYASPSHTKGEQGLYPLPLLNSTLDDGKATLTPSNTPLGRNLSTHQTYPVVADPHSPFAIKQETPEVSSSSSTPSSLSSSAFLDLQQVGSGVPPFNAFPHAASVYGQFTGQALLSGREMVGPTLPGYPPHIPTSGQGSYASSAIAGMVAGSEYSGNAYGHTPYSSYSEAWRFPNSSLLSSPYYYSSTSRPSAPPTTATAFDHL

[18] = OVCAR8 cell viability loss – plate reader, dry powder samples, PAX8 project, dose response (AID 743197); type: functional, cell-based; conditions: OVCAR-8
[19] = OVCAR-3 cell viability loss – plate reader, dry powder samples, PAX8 inhibitor project, dose response (AID 743044); type: functional, cell-based

## CSc1nnc(NC(=O)c2ccc3c(c2)OCO3)s1
[1]
  AC50: 1.72 µM (active)
[2]
  IC50: 22.5 µM (inactive)
[3]
  AC50: 1.86 µM (active)
[4]
  AC50: > 52 µM (inactive)

## CCc1ccc(OCC(=O)NNC(=S)NC(=O)C2CC2)c(Br)c1
[5]
  AC50: 0.978 µM (active)
[6]
  EC50: > 150 µM (inactive)
[7]
  EC50: 1.61 µM (active)

## Cc1ccc(S(=O)(=O)[N-]C2=C(n3cc[n+](CCC(C)C)c3)C(=O)c3ccccc3C2=O)cc1
[8]
  AC50: 4.11 µM (active)
[9]
  IC50: 12.2 µM (active)

## CNS(=O)(=O)c1ccc(-c2ccc(C=C3C(=O)NC(=O)NC3=O)o2)cc1
[2]
  IC50: 51.2 µM (inactive)

## O=C1NC(=O)/C(=C\c2ccc(OCc3cccc(C(=O)O)c3)c(Cl)c2)N1
[10]
  EC50: 10.6 µM (active)
[11]
  EC50: 9.49 µM (inconclusive)
HEK293
  AC50: 6.47 µM (active)

## CCCSc1nnc(CSc2nc3ccccc3s2)n1-c1ccccc1
[12]
  AC50: 2.8 µM (active)
[13]
  AC50: 7.05 µM (active)
[14]
  AC50: > 70 µM (inactive)
[15]
  AC50: 22.7 µM (active)

## COc1cc(/C=C2/SC(=S)N(CC(=O)O)C2=O)ccc1OC(=O)c1cccs1
Genome polyprotein
  IC50: 88.3 µM (active)

## O=C(O)c1ccccc1NS(=O)(=O)c1ccc(NN=Cc2ccccc2F)c([N+](=O)[O-])c1
Caspase-6
  AC50: 19 µM (active)

## Cc1ccccc1C(=O)N1CCN(c2ccc(NC(=O)c3cccs3)cc2)CC1
HEK293
  AC50: 0.788 µM (active)

## O=S(=O)(c1ccccc1F)N1CCN(CCc2ccccc2)CC1
[16]
  IC50: 5.45 µM (active)

## CCOC(=O)c1c(C)n(-c2ccc(C)cc2)c2c(C(C(C)=O)C(=O)O)c(Br)c(O)c(O)c12 (stereo not given)
[2]
  IC50: 26.5 µM (inactive)
[9]
  IC50: 12.3 µM (active)

## Cc1ccc(S(=O)(=O)Oc2ccccc2C=C2C(=O)N(C)C(=O)N(C)C2=O)cc1
Genome polyprotein
  IC50: 37.8 µM (active)

## O=C(Nc1ccc(Br)cc1)c1ccc(F)c(S(=O)(=O)NCc2cccs2)c1
[13]
  AC50: 3.05 µM (active)
[14]
  AC50: 4.35 µM (active)
[15]
  AC50: 6.05 µM (active)

## CC(C)c1ccc(N2C(=O)C(Cl)=C(N3CCOCC3)C2=O)cc1
Genome polyprotein
  IC50: 69.4 µM (active)

## CC(=O)C1(C)CCC2C3C=C(C)C4=CC(=O)CCC4(C)C3CCC21C (stereo not given)
[13]
  AC50: 9.83 µM (active)
[14]
  AC50: 45.2 µM (active)
[15]
  AC50: 29.1 µM (active)

## COc1ccc(C(=O)Nc2ccc(N3CCN(C(=O)c4ccccc4C)CC3)cc2)cc1
HEK293
  AC50: 4.67 µM (active)

## O=C(COC(=O)c1ccc([N+](=O)[O-])o1)Nc1ccc(Br)cc1F
Caspase-6
  AC50: 40.1 µM (active)

## C(=NNc1ccc2ccccc2n1)c1ccccn1
[17]
  AC50: 58.9 µM (active)
Paired box protein Pax-8
  AC50: 2.95 µM (active)

## O=C(NCc1cccnc1)c1ccc(COc2ccccc2Cl)o1
[16]
  IC50: 14.5 µM (active)

## COCC(=O)N1CCC(Oc2ccc(C(=O)N3C[C@H]4CC[C@H]3C4)cc2)CC1
HEK293
  AC50: > 350 µM (inactive)

## CC(C)CC#Cc1ccc2c(c1)O[C@H](CN(C)S(=O)(=O)c1ccc(F)cc1)[C@H](C)CN([C@H](C)CO)S2(=O)=O
[17]
  AC50: 61.2 µM (active)
Paired box protein Pax-8
  AC50: 14.5 µM (active)
[18]
  AC50: 57.1 µM (active)
[19]
  AC50: 31.9 µM (active)

## O=C(Nc1ccccc1)N1CCCCN2[C@H](CO)[C@H](c3ccc(C#Cc4ccccc4)cc3)[C@H]2C1
[17]
  AC50: 35.5 µM (active)
Paired box protein Pax-8
  AC50: 16.8 µM (active)
[19]
  AC50: 20 µM (active)

## Oc1ccc(/N=C/c2c(O)ccc3ccccc23)cc1
Caspase-6
  AC50: 10 µM (active)
